Assay results: patent US5547970A, “Use of leflunomide for inhibiting tumor necrosis factor alpha” (priority 1993, dated 1996)
“Also recorded” adds a separate entry of the source.

Columns and labels:
TNFalpha = assay: Inhibition of lipopolysaccharide-induced synthesis and liberation of TNFalpha in human mononuclear blood cells (sandwich enzyme immuno test); type: cell-based; details: for activity at 10 µM: 0.01 mmol/l; for activity at 100 µM: 0.1 mmol/l; for inhibitory effect on the synthesis and liberation of cytokines from human blood cells / effect on the TNFalpha level: in words; for effect on the TNFalpha level: experiments in Tab. 1
Method: The cell fraction which was visible as a white ring at the phase boundary was removed with the aid of a syringe, diluted 1:1 (v/v) with PM-16 buffer (from Serva Feinbiochemica GmbH & Co. KG, Heidelberg) and then centrifuged once again, as above, for 10 min. […] Using a cell counter (type IT, from Coulter Diagnostics, Krefeld), the cell suspension, which is composed of about 90% lymphocytes and 10% monocytes, was adjusted to about 5 million cells/ml. Cell viability was monitored before and after the inhibition experiments using the known lactate dehydrogenase method.
The synthesis and liberation of cellular TNFalpha was induced by adding a solution of 500 ng of lipopolysaccharide (Salmonella abortus equi, Sigma GmbH, Deisenhofen) in 0.01 ml of dimethyl sulfoxide/water (1:10, v/v) to 0.48 ml of the above-described cell fraction. At the same time, a solution of leflunomide or leflunomide metabolite in 0.01 ml of dimethylsulfoxide (for the final concentration in each case, see Tab. 1) was added to the cell fraction and the mixture was left at 37° C. for 20 h in a commercially available incubator. After cooling down to 0° C., the samples were centrifuged for 1 min. in a bench centrifuge. and in each case 0.025 ml aliquots of the supernatant were examined for their TNFalpha content using a "sandwich" enzyme immuno test kit (from Biermann GmbH, Bad Nauheim) in accordance with the manufacturer's instructions. The control values were determined without the addition of leflunomide or its metabolites and set at 100%. In particular, any possible influence of dimethylsulfoxide on the TNFalpha level was excluded by appropriate comparative measurements.

[1] = Metabolism of leflunomide in the test sample (mononuclear cell fraction), HPLC; type: in vitro ADME, human; details: human, mononuclear cells; mononuclear cell fraction, 37° C., HPLC; read-out: half life of metabolism of leflunomide to its metabolites (converted)
mononuclear cells = assay: as above; type: in vitro ADME, human; details: in words; isolated mononuclear blood cells
[2] = Homo sapiens, LPS 500 ng, 37° C., 20 h, control = 100%, read-out: TNFalpha in the supernatant % +/- standard deviation

| Compound | activity at 10 µM (TNFalpha; [2]) [%] | activity at 100 µM (TNFalpha; [2]) [%] | inhibitory effect on the synthesis and liberation of cytokines from human blood cells (TNFalpha) | effect on the TNFalpha level (TNFalpha) | half-life [1] [h] | metabolism of leflunomide under the experimental conditions (mononuclear cells) | activity at 50 µM (TNFalpha; Homo sapiens, 0.05 mmol/l, LPS 500 ng, 37° C., 20 h, control = 100%, read-out: TNFalpha in the supernatant % +/- standard deviation) [%] |
| --- | --- | --- | --- | --- | --- | --- | --- |
| C/C(O)=C(\C#N)C(=O)Nc1ccc(C(F)(F)F)cc1 [Leflunomide metabolite, N-(4-trifluoromethylphenyl)-2-cyano-3-hydroxycrotonamide] | 102 ± 12 | 105 | does not exhibit this advantageous effect | practically no effect on the TNFalpha level |  |  |  |
| Cc1oncc1C(=O)Nc1ccc(C(F)(F)F)cc1 [Leflunomide, N-(4-trifluoromethylphenyl)-5-methylisoxazole-4-carboxamide] | 100 ± 15 | 28 ± 5 | strong inhibitory effect | clearly lowered | ~10 | did not, to any appreciable extent, metabolize; also recorded: only very slowly; also recorded: no appreciable metabolism | 35 |
